Consider 3 compounds from ChEMBL document CHEMBL5653631, “A Potent and Selective ULK1 Inhibitor Suppresses Autophagy and Sensitizes Cancer Cells to Nutrient Stress” (iScience, 2018).

For orientation: inhibition means the drop in the measured response relative to a control, in per cent.

Test [1] addresses Cell division cycle 7-related protein kinase (Homo sapiens) (UniProt O00311). Description: Inhibition of human recombinant CDC7 at 40 nM in presence of ATP by radiometric assay relative to control.
Test [2] deals with Mitogen-activated protein kinase kinase kinase 9 (Homo sapiens) (UniProt P80192). Description: Inhibition of human recombinant MLK1 at 40 nM in presence of ATP by radiometric assay relative to control.
In test [3] the target is T1, Ephrin type-A receptor 8 (Homo sapiens) (UniProt P29322).
T1 sequence (whole entry): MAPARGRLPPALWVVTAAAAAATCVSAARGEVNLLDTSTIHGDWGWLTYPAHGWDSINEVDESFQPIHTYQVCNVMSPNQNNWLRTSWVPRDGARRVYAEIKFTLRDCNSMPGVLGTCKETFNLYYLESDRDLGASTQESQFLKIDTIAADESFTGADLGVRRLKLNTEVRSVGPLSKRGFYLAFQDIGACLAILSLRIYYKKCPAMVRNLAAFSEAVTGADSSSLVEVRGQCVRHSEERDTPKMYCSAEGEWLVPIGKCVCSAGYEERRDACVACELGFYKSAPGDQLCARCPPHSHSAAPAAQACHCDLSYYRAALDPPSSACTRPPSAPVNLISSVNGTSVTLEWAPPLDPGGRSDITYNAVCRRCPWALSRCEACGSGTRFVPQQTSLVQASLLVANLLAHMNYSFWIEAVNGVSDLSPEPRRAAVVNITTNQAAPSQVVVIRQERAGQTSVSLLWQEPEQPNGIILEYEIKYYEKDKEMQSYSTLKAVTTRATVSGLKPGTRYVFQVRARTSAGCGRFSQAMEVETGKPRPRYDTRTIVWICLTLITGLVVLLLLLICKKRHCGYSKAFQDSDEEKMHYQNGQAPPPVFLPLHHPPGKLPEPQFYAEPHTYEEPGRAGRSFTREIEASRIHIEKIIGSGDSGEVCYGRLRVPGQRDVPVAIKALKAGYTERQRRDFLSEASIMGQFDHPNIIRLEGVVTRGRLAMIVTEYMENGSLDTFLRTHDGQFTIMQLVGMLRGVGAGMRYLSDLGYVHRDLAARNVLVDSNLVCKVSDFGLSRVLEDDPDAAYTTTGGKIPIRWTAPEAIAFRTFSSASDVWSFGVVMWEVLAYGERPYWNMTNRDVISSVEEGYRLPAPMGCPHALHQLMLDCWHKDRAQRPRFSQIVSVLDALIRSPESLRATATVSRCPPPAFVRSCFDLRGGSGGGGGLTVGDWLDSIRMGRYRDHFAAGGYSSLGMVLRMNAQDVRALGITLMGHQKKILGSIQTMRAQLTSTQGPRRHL
Description: Inhibition of human recombinant EphA8 at 40 nM related to control ULK1.

The target in test [4] is Receptor-type tyrosine-protein kinase FLT3 (Homo sapiens) (UniProt P36888). Description: Inhibition of human recombinant FLT3 at 40 nM related to control ULK1.
Test [5] deals with T2, Tyrosine-protein kinase ITK/TSK (Homo sapiens) (UniProt Q08881).
T2 sequence (whole entry): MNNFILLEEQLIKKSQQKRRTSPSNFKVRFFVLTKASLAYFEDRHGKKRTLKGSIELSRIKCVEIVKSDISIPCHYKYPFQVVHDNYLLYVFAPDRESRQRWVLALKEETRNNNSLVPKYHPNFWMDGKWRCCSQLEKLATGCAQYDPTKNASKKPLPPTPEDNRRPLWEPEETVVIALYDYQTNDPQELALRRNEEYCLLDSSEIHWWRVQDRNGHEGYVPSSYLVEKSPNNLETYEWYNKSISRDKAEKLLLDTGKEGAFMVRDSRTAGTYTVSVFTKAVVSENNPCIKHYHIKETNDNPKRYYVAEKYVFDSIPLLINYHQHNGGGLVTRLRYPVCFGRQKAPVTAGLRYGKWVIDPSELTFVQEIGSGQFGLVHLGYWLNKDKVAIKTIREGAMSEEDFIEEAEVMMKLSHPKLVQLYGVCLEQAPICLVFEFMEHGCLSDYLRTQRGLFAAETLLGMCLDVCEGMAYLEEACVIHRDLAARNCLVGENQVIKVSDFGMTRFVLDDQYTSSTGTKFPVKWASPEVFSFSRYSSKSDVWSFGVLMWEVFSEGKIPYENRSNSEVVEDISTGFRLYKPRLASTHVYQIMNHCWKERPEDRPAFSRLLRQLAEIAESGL
The test is described as follows: Inhibition of human recombinant ITK at 40 nM related to control ULK1.

Test [6] deals with SRSF protein kinase 1 (Homo sapiens) (UniProt Q96SB4). The test is described as follows: Inhibition of human recombinant SRPK1 at 500 nM in presence of ATP by radiometric assay relative to control.
Test [7] concerns the target RAC-gamma serine/threonine-protein kinase (Homo sapiens) (UniProt Q9Y243). The test is described as follows: Inhibition of human recombinant AKT3 at 500 nM related to control ULK1.
The target of test [8] is T3, Rhodopsin kinase GRK1 (Homo sapiens) (UniProt Q15835).
T3 sequence (whole entry): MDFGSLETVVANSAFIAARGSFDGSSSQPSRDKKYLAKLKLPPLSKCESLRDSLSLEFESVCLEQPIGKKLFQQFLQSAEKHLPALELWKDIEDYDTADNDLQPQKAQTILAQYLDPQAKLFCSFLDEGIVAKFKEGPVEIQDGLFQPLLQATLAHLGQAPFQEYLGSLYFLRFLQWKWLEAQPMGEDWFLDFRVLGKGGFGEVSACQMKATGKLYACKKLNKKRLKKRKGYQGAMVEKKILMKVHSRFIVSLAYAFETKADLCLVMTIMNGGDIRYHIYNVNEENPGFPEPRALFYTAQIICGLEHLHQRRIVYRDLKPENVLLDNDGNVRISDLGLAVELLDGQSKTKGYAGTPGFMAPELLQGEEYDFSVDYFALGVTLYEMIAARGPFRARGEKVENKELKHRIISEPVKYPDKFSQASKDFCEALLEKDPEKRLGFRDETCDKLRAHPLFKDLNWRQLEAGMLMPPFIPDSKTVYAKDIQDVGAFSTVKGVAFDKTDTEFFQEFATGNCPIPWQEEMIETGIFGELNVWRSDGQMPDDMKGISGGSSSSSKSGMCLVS
Description: Inhibition of human recombinant RHOK at 500 nM related to control ULK1.

The target of test [9] is Serine/threonine-protein kinase pim-3 (Homo sapiens) (UniProt Q86V86). Description: Inhibition of human recombinant PIM3 at 15 nM related to control ULK1.

Chain of Receptor-type tyrosine-protein kinase FLT3 (Homo sapiens) (P36888 whole entry): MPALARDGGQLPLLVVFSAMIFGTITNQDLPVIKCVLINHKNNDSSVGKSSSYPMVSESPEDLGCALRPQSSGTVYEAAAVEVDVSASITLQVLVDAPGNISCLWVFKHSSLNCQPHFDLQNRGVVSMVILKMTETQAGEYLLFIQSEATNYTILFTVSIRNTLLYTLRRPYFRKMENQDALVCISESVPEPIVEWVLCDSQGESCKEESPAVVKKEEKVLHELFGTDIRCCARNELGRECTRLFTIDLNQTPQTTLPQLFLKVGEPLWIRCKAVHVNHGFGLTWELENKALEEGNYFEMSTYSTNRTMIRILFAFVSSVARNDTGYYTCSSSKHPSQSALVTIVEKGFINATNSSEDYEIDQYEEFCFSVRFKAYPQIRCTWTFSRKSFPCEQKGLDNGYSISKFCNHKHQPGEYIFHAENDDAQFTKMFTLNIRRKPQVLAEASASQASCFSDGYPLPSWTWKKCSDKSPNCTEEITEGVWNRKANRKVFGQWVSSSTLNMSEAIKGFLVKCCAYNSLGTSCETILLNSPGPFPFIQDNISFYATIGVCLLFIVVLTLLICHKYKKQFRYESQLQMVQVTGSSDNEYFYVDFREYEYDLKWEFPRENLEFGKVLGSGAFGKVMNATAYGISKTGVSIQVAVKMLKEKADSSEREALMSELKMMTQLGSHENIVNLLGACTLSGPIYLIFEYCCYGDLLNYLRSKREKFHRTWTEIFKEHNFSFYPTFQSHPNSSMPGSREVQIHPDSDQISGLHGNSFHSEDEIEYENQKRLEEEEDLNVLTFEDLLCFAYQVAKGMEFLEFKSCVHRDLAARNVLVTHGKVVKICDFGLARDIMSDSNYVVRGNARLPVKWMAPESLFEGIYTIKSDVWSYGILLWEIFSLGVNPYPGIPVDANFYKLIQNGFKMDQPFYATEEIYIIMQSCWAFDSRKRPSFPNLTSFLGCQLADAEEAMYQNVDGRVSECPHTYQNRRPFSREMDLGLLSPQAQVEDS
Chain of SRSF protein kinase 1 (Homo sapiens) (Q96SB4 whole entry): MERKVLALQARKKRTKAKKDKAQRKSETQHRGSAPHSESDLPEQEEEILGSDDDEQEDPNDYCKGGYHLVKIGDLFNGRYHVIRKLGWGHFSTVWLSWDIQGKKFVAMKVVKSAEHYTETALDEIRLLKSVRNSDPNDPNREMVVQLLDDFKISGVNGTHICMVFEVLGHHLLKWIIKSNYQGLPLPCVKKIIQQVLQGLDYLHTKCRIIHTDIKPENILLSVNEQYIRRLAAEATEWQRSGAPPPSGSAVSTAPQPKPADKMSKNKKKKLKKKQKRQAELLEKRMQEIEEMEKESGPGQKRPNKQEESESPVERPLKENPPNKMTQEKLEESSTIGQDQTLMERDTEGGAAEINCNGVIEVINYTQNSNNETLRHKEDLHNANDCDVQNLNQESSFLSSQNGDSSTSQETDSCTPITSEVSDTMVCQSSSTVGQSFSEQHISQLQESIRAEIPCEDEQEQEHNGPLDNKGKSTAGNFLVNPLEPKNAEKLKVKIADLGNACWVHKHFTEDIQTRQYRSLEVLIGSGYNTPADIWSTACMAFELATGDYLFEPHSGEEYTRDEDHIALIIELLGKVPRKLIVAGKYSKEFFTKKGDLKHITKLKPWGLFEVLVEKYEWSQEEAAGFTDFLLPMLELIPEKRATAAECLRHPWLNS
Chain of RAC-gamma serine/threonine-protein kinase (Homo sapiens) (Q9Y243 whole entry): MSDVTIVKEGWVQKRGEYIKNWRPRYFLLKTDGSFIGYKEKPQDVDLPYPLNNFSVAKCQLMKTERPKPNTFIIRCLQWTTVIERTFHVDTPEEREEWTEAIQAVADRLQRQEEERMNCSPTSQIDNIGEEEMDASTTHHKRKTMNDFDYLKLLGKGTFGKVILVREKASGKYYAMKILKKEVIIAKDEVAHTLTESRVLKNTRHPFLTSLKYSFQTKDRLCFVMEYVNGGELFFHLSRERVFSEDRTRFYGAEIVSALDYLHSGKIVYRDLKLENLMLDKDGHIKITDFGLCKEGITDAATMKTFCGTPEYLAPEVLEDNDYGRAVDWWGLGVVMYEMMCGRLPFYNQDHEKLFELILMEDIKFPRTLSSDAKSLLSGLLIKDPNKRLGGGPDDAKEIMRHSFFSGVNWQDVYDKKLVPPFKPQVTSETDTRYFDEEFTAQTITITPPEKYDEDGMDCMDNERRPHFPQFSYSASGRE
Chain of Cell division cycle 7-related protein kinase (Homo sapiens) (O00311 whole entry, looked up): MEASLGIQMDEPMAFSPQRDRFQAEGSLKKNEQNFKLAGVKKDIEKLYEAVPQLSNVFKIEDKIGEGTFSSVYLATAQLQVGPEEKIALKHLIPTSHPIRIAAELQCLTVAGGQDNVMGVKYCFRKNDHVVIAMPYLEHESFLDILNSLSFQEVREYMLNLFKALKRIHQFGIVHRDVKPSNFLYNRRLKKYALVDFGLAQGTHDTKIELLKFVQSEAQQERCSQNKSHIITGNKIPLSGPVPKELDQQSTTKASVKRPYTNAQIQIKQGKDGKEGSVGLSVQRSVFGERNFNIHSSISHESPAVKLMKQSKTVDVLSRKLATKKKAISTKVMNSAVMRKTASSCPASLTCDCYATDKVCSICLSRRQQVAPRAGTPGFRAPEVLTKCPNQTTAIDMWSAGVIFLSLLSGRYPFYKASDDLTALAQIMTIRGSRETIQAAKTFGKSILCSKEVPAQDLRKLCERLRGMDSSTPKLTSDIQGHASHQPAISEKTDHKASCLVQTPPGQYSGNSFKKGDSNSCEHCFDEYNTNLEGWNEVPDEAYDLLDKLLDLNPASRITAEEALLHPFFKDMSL
Chain of Mitogen-activated protein kinase kinase kinase 9 (Homo sapiens) (P80192 whole entry, looked up): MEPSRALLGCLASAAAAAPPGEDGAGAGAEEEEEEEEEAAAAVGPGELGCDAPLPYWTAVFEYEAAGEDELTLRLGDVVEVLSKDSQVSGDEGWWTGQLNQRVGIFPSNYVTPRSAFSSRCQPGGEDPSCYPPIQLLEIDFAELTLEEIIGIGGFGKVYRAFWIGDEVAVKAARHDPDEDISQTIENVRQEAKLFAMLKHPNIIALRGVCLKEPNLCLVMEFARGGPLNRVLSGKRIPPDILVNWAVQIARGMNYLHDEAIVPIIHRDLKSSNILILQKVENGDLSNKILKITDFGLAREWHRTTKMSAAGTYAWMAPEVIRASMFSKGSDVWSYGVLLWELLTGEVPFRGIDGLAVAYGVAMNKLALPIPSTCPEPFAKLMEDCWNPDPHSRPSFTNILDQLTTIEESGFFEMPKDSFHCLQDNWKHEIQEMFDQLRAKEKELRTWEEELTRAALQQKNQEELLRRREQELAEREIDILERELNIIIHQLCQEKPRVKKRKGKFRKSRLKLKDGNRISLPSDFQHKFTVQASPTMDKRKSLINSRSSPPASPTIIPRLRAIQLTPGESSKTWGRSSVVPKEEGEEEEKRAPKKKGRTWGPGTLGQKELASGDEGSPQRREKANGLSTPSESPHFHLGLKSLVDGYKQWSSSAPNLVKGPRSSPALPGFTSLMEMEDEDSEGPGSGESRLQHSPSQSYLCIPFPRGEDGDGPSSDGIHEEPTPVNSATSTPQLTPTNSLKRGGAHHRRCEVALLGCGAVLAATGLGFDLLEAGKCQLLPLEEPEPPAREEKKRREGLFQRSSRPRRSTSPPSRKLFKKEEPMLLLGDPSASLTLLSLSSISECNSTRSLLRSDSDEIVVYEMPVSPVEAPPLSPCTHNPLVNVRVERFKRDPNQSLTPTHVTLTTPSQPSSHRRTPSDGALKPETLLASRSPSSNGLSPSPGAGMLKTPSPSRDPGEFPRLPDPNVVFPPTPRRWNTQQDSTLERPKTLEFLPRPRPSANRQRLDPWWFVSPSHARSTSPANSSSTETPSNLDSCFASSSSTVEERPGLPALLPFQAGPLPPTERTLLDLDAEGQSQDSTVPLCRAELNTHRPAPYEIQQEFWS

`O=C(N[C@@H](C1CC1)C(F)(F)F)c1cc(-c2cnn3cc(-c4ccc(F)cc4)cnc23)cs1`: the results for the inhibition in test [1] and in [2] were 39% and 7%, respectively. The fold change (FC) in test [3] is 0; in [4] it was 0.26; in [5], 0.
In the case of `CNC(=O)c1ccccc1Oc1nc(Nc2cc(OC)c(OC)c(OC)c2)ncc1Br`, in test [6], the inhibition was determined as 10%. Further, the fold change (FC) in test [7] stood at 0.07; in [8], 0.
As to `CC(C)[C@H](NC(=O)c1cc(-c2cnn3cc(-c4ccc(OCCN5CCCCC5)cc4)cnc23)cs1)C(F)(F)F`, the fold change (FC) in test [9] stood at 0.02.
